According to ChEMBL document CHEMBL2073864, “Transport of glyburide by placental ABC transporters: implications in fetal drug exposure” (Placenta, 2006):

Assays:
Type in all cases: functional, cell-based
[1] = target: Multidrug resistance associated protein (Homo sapiens) (UniProt Q96QA9); experiment: TP_TRANSPORTER: inhibition of 5-carboxyfluorescein accumulation by glyburide at a concentration of 10uM in MRP3-expressing MDCK cells
[2] = target: T1, ATP-binding cassette sub-family C member 2 (Homo sapiens, UniProt Q92887); experiment: TP_TRANSPORTER: inhibition of 5-carboxyfluorescein accumulation by glyburide at a concentration of 200uM in MRP2-expressing MDCK cells; design: scale not given: the % may be the effect or the level left; conditions: dog
T1 sequence (Q92887 whole entry): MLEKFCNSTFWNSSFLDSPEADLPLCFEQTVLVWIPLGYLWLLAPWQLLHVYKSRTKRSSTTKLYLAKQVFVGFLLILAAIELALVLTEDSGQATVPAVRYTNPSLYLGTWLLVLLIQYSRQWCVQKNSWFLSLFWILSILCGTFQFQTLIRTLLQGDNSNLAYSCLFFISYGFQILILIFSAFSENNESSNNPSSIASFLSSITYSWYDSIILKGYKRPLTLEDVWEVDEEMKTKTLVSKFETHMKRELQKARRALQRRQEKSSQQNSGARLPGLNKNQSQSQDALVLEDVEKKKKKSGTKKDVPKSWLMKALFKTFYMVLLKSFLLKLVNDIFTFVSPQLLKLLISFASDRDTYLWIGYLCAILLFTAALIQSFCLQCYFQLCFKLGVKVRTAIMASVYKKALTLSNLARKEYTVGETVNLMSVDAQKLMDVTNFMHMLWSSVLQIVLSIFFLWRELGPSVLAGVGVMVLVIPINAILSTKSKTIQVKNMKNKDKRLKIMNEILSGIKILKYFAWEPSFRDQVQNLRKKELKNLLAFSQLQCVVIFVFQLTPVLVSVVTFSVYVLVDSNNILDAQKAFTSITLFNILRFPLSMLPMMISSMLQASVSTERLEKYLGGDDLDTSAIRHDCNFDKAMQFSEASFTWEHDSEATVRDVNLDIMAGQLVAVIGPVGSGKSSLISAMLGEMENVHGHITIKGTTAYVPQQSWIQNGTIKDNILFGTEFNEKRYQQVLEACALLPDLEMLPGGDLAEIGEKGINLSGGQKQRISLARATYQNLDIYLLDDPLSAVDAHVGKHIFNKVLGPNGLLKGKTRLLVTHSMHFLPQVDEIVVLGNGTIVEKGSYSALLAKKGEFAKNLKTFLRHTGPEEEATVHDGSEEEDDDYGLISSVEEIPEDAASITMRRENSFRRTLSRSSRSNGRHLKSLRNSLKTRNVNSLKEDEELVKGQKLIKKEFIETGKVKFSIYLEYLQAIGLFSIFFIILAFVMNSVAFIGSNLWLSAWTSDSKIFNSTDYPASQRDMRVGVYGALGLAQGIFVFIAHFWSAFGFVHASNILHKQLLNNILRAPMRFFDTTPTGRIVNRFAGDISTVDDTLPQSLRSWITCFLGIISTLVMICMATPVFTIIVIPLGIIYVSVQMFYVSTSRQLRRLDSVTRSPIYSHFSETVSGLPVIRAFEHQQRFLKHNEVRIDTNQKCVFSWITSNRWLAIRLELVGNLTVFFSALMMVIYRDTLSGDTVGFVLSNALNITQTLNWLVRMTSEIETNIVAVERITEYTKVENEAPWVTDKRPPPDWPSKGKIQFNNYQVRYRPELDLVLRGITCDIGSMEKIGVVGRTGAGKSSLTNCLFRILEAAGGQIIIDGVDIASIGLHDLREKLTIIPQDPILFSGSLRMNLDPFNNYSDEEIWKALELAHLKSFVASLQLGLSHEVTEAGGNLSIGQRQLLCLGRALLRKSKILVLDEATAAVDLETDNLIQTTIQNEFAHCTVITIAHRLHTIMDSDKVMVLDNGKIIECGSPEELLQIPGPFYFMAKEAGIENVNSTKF

[3] = target: T1, ATP-binding cassette sub-family C member 2; experiment: TP_TRANSPORTER: inhibition of 5-carboxyfluorescein accumulation in MRP2-expressing MDCK cells; conditions: dog
[4] = target: T2, Multidrug resistance-associated protein 1 (Mus musculus, UniProt O35379); experiment: TP_TRANSPORTER: inhibition of 5-carboxyfluorescein accumulation in the presence of glyburide at a concentration of 10uM in MRP1-expressing HeLa cells; conditions: human
T2 sequence (O35379 whole entry): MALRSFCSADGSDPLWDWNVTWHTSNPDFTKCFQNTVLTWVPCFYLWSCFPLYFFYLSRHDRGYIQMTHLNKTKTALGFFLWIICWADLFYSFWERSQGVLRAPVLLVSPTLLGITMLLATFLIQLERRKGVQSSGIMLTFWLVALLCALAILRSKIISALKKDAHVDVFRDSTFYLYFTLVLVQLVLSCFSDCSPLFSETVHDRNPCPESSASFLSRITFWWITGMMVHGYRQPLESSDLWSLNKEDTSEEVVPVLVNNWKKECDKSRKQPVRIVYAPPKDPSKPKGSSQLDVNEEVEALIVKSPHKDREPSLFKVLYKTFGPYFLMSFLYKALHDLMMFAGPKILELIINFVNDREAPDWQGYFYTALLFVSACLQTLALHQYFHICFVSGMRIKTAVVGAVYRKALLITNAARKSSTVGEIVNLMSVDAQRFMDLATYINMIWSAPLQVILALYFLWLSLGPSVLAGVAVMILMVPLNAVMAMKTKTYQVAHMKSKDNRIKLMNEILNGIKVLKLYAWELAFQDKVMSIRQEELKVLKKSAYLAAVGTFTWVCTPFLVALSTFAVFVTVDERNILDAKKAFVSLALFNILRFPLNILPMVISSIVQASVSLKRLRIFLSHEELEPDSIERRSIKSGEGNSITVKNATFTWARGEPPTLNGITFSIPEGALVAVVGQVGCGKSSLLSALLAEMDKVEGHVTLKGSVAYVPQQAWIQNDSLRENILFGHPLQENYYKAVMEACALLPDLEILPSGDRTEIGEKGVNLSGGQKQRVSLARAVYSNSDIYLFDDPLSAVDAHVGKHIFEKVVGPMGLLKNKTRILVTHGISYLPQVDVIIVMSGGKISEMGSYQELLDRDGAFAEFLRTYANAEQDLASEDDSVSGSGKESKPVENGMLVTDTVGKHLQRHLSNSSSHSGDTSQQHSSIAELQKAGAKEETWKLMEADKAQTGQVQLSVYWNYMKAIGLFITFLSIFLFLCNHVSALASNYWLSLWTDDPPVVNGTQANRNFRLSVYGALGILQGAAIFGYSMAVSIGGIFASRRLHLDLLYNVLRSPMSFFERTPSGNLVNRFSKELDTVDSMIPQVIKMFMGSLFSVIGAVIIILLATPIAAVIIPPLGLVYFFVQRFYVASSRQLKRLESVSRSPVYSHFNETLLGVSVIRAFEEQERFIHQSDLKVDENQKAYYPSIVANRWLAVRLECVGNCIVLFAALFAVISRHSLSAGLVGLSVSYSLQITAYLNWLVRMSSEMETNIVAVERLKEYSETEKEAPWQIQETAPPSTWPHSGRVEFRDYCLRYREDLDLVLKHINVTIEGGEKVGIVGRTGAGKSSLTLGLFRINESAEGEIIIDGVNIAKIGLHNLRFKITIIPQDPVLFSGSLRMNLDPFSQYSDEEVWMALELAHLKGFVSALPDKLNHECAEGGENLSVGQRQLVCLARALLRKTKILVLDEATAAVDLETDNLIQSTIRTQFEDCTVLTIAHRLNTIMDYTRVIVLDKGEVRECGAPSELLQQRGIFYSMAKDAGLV

[5] = target: T3, Broad substrate specificity ATP-binding cassette transporter ABCG2 (Homo sapiens, UniProt Q9UNQ0); experiment: TP_TRANSPORTER: inhibition of mitoxantrone efflux in BCRP-expressing MCF7-MX cells
T3 sequence (Q9UNQ0 whole entry): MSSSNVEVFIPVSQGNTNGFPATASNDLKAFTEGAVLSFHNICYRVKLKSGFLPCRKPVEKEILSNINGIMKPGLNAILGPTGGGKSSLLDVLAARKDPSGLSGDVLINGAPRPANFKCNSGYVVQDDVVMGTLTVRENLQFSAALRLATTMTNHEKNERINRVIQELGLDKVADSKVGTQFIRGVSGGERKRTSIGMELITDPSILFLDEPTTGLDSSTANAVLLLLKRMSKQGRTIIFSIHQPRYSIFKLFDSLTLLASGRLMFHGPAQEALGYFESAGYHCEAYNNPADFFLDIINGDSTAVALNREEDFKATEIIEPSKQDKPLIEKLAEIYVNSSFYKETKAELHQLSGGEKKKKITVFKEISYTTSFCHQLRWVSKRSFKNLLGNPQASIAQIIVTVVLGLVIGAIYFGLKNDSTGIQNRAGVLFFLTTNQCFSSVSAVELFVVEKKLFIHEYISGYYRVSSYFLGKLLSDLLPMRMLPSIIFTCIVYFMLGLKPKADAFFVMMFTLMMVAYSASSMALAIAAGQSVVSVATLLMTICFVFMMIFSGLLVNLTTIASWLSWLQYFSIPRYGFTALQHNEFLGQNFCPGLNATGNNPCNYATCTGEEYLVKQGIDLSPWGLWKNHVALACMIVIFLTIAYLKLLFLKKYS

[6] = target: Multidrug resistance associated protein (Homo sapiens) (UniProt Q96QA9); experiment: TP_TRANSPORTER: inhibition of 5-carboxyfluorescein accumulation by glyburide at a concentration of 200uM in MRP3-expressing MDCK cells; design: scale not given: the % may be the effect or the level left
[7] = target: T1, ATP-binding cassette sub-family C member 2; experiment: TP_TRANSPORTER: inhibition of glyburide accumulation in MRP2-expressing MDCK cells; conditions: dog
[8] = target: Multidrug resistance associated protein (Homo sapiens) (UniProt Q96QA9); experiment: TP_TRANSPORTER: inhibition of glyburide accumulation by indomethacin at a concentration of 200uM in MRP3-expressing MDCK cells
[9] = target: T2, Multidrug resistance-associated protein 1; experiment: TP_TRANSPORTER: inhibition of 5-carboxyfluorescein accumulation in the presence of indomethacin at a concentration of 200uM in MRP1-expressing HeLa cells; design: scale not given: the % may be the effect or the level left; conditions: human
[10] = target: T2, Multidrug resistance-associated protein 1; experiment: TP_TRANSPORTER: inhibition of glyburide accumulation in the presence of indomethacin at a concentration of 200uM in MRP1-expressing HeLa cells; conditions: human
[11] = target: Multidrug resistance associated protein (Homo sapiens) (UniProt Q96QA9); experiment: TP_TRANSPORTER: inhibition of 5-carboxyfluorescein accumulation by indomethacin at a concentration of 200uM in MRP3-expressing MDCK cells; design: scale not given: the % may be the effect or the level left

Chain of Multidrug resistance associated protein (Homo sapiens) (Q96QA9 as listed by the source): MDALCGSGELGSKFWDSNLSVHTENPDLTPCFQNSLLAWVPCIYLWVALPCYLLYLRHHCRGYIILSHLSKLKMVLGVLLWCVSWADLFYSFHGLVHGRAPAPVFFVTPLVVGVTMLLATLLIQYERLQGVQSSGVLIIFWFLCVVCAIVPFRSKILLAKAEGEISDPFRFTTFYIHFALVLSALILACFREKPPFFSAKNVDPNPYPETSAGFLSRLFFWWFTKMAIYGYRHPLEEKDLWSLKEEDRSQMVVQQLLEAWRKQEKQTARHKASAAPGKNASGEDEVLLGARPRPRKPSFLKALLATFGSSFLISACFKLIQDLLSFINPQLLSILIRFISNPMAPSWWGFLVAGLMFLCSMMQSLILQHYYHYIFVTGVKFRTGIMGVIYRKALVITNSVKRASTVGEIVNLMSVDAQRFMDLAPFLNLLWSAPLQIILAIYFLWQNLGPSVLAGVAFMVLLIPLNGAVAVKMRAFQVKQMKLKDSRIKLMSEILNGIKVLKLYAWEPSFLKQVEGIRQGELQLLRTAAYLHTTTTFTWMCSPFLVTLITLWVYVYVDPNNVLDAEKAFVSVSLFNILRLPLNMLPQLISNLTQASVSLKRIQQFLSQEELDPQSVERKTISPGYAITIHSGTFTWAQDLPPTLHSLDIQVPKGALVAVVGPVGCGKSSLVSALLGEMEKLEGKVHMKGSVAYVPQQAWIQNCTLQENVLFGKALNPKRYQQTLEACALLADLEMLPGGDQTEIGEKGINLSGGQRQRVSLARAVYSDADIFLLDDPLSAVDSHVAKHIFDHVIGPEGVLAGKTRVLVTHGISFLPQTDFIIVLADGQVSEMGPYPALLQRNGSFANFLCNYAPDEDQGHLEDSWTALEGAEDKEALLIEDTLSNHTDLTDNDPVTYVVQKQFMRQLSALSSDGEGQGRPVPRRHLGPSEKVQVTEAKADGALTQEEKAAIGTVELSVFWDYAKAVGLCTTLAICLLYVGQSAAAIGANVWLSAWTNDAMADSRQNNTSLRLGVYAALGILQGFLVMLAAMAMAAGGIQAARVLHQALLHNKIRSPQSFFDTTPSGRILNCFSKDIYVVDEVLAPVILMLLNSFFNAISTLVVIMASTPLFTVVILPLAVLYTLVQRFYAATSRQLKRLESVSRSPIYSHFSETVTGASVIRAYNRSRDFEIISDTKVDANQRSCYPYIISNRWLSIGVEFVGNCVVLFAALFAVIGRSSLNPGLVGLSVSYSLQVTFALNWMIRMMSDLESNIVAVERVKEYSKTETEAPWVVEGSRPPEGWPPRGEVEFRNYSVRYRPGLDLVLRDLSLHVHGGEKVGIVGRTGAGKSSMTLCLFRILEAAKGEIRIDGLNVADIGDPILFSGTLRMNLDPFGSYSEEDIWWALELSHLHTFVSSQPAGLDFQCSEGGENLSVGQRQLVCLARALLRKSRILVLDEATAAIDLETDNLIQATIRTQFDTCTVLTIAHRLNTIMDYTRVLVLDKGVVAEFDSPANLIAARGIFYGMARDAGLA

Compound	Activity [1]	Activity [2]	Activity [3]	Activity [4]	IC50 [5]	Activity [6]	Activity [7]	Activity [8]	Activity [9]	Activity [10]	Activity [11]
COc1ccc(Cl)cc1C(=O)NCCc1ccc(S(=O)(=O)NC(=O)NC2CCCCC2)cc1 [GLYBURIDE]	is not a inhibitor [-]	230%	is not an inhibitor [-]	is not an inhibitor [-]	150 µM	1350%					
COc1ccc2c(c1)c(CC(=O)O)c(C)n2C(=O)c1ccc(Cl)cc1 [INDOMETHACIN]							is not an inhibitor [-]	1.8 fold	170%	inhibitor [+]	350%
